Like-named read-outs stand apart in the source and are kept apart here.
What was measured:
hKv1.5 = target: T1, hKv1.5 (Homo sapiens, UniProt P22460); test: Voltage-clamp measurement of hKv1.5 current expressed in Chinese hamster ovary (CHO) cells; format: cell-based; conditions: rested state block, first pulse; 150 ms pulses to +40 mV from -80 mV; room temperature (22-24° C); read-out: Rested State IC50, CHO Cells Expressing hKv1.5
T1 construct: expressed in transfected cells
Procedure: Expression of Kv1.5 in CHO Cells
CHOKI cells were plated at 2.7×10^4 cells/60 mm dish and incubated at 37° C., in a 5% CO2 environment for three days. Cells were then washed twice and covered with 3 ml of OptiMEM medium (Gibco). Plasmid/DOTAP solution (consisting of […] of Kv1.5 in pcDNAI/Neo and […] DOTAP transfection reagent (Boehringer Mannheim) in 1 ml of OptiMEM) was added dropwise to each plate while swirling. Plates were incubated overnight and the media then changed to 5 mls of F12 (Gibco) supplemented with 10% FBS (Sigma), 1,000 U/ml penicillin […] streptomycin (Gibco), and 2 mM glutamine (Gibco). After two more days, the cells were trypsinized and replated on 100 mm dishes in supplemented F12 media including 1 mg/ml G418 (Gibco). The medium was changed daily until nontransfected cells were killed. Cell lines were grown from individual clones and tested for expression of Kv1.5 using both the ^86 RB efflux assay and voltage clamp protocols. […] These cells were maintained in culture and on each experimental day were freshly isolated by mild trypsinization.
The patch-clamp technique was used to record ionic currents in the whole-cell configuration. Patch pipettes were obtained using a two stage puller from square bore (1.0 mm o.d.) borosillicate capillary tubing. Pipettes were filled with the following solution (in mM/L): 110 K-Gluconate or K-Aspartate, 20 KCl, 5 MgATP, 5 EGTA, 5-10 HEPES, pH 7.2. […] Following seal formation, the membrane was ruptured by gentle suction to establish the whole-cell configuration, and negative pressure was maintained on the pipette using a 1 ml gas-tight syringe attached via air tight tubing to the suction port of the microelectrode holder.
Kv1.5 currents were elicited by 150 ms depolarizing test pulses to +40 mV from a holding potential of -80 mV. The effects of test agents were assessed at steady-state. Data was analyzed as % block from control current amplitude. […] All experiments were performed at room temperature (22-24° C.). […]

[1] = tested on: IK1 (inward rectifier K^+ current); test: Voltage-clamp measurement of IK1 in guinea pig ventricular myocytes; format: cell-based
Procedure: Guinea pig ventricular myocytes were isolated using a modification of the procedure described by Mitra et al., Am. J. Physiol. 249:H1056-60 (1985). Excised hearts were perfused through the aorta (retrograde fashion) at a rate of 10 ml/min with oxygenated, warmed (37° C.) solutions described below. The heart was initially perfused for 7 minutes with a Tyrode's solution containing, (in mM): 132 NaCl, 4 KCl, 1.2 MgCl2, 10 HEPES, 5 glucose, pH=7.2. The heart was then perfused with the same nominally Ca^2+ -free solution containing 150 units/ml Type II collagenase (Worthington) and 0.5 units/ml Type XIV protease (Sigma) for 8 minutes. This perfusate was followed by a Tyrode's solution containing 0.2 mM CaCl2 (without enzymes) for 5 minutes. The digested ventricles were cut into small pieces and gently shaken until cells were visibly dispersed. The cells were stored at room temperature until use, within 8 hours after isolation.
The suction microelectrode technique described by Giles, W. R. and Shibata, E. F., "Voltage clamp of bull-frog cardiac pacemaker cells: a quantitative analysis of potassium currents", J. Physiol. 368:265-292 (1985) was used to voltage clamp the cells. Microelectrodes were made by using a two stage puller from square bore (1.0 mm o.d.) borosilicate capillary tubing. Pipettes were filled with 0.5 M K gluconate, 25 mM KCl and 5 mM K2 ATP. The electrodes had resistances of 3 to 7 M.OMEGA. when filled with this solution. After establishing whole-cell recording mode, negative pressure was maintained on the pipette using a 1 ml gas-tight syringe attached via air tight tubing to the suction port of the microelectrode holder. This minimized dialysis of the cell with the pipette solution.
To record K^+ currents, the cells were bathed in a Ca^2+ -free Tyrode's solution containing […]. […] To record Ca^2+ currents, the cells were bathed in Tyrode's solution containing 1.8 mM Ca^2+ without nisoldipine. The cell chamber was superfused with solutions at a rate of 1-2 ml/minute, while maintaining the temperature at 35±1° C. A List EPC-7 clamp amplifier was used to voltage clamp the isolated cells. […] (Sanguinetti M. C. and Jurkiewicz, N. K., "Two components of cardiac delayed rectifier K^+ current: Differential sensitivity to block by Class III antiarrhythmic agents", J. Gen Physiol 1990; 96:194-214.) Data was analyzed as % block from control membrane currents.
Nisoldipine was prepared as a 4 mM stock solution in polyethylene glycol 200. […] At the final concentrations used neither polyethylene glycol 200 nor dimethyl sulfoxide had any effect on any of the measured membrane currents.
Selectivity for block of cardiac K^+ channels, IK1, IKr, and IKs was determined as previously described in guinea pig ventricular myocytes (U.S. Pat. No. 5,428,031).

T1 sequence (P22460 whole entry): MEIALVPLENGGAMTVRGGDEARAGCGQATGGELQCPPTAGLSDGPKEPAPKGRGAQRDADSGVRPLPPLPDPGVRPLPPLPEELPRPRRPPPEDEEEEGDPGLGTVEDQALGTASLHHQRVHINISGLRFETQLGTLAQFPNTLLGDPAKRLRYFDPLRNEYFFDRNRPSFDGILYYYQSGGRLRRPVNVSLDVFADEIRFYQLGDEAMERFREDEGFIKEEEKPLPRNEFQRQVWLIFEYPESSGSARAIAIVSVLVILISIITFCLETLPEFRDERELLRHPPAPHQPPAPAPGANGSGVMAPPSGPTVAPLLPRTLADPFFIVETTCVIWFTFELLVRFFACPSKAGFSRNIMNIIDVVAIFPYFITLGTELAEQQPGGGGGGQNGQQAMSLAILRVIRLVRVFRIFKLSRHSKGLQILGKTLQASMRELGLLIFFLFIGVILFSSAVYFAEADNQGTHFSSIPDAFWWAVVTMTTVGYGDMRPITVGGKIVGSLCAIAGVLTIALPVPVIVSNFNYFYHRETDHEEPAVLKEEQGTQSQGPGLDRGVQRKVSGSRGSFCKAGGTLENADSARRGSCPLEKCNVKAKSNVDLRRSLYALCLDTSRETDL
Procedure for atrial flutter: In this model, atrial flutter was induced following a Y-shaped surgical lesion comprised of an intercaval incision and a connecting incision across the right atrium. […] Bipolar electrodes also were sutured to the left ventricle for measurement of ventricular excitation threshold (VET) and ventricular relative (VRRP at 2× VET) and effective refractory periods (VERP at 10×VET). The following cardiac electrophysiologic parameters also were measured before test agent administration and at the termination of the study: AH interval, an index of AV nodal conduction; HV interval, an index of His-ventricular conduction time; P-A interval, an index of intra-atrial conduction; and H-EG interval, an index of ventricular conduction; and paced ECG QT interval. AV nodal functional refractory period (AVNFRP) and SA conduction time (SACT) were determined by the introduction of atrial extrastimuli during sinus rhythm, and the monitoring of ventricular response. Electrocardiographic intervals were determined during sinus rhythm; the rate-corrected ECG QTc interval was calculated as: QTc=QT (msec)/√R-R (sec).
Sustained atrial flutter was initiated in three dogs by electrical burst pacing (6-20 Hz) of the atria; atrial rates ranged from 440-530 cycles/min.

IC50 (hKv1.5) [nM] | SMILES | % Block (Guinea Pig Ventricle) IK1 ([1]; @ 3 μM) [%] | % Block (Guinea Pig Ventricle) IK1 ([1]; @ 10 μM) [%] | atrial effective refractory period, post-treatment (atrial flutter; at doses effective in terminating atrial arrhythmia, increase from 138±5 msec pretreatment) [ms] | effect on atrioventricular nodal or ventricular function (atrial flutter; dog, in vivo) | time to termination of atrial arrhythmia after test agent administration (atrial flutter; i.v. bolus 3 mg/kg (two dogs) or 10 mg/kg (third dog)) [s] | atrial rate during atrial flutter (atrial flutter; i.v. bolus 3 mg/kg (two dogs) or 10 mg/kg (third dog), initial rates 440-530 cycles/min) | termination of atrial arrhythmia (atrial flutter; i.v. bolus 3 mg/kg, in two of three dogs) | termination of atrial arrhythmia (atrial flutter; i.v. bolus 10 mg/kg, in the third of three dogs)
120 | COc1ccc(-n2nc(Sc3ccc(C)cc3)c(C)c(C#N)c2=O)cc1 [Compound B] | 4.4 | – | – | – | – | – | – | –
230 | COc1ccc(-n2nc(Sc3ccc(Cl)cc3)c(C)c(C#N)c2=O)cc1 [Compound A, 6-(4-Chlorophenylthio)-2-(4-methoxyphenyl)-5-methyl-3-oxo-2,3-dihydropyridazine-4-carbonitrile] | – | 6 | – | – | – | – | – | –

SMILES | IC50 (hKv1.5) [nM] | % Block (Guinea Pig Ventricle) IK1 ([1]; @ 3 μM) [%] | % Block (Guinea Pig Ventricle) IK1 ([1]; @ 10 μM) [%] | atrial effective refractory period, post-treatment (atrial flutter; at doses effective in terminating atrial arrhythmia, increase from 138±5 msec pretreatment) [ms] | effect on atrioventricular nodal or ventricular function (atrial flutter; dog, in vivo) | time to termination of atrial arrhythmia after test agent administration (atrial flutter; i.v. bolus 3 mg/kg (two dogs) or 10 mg/kg (third dog)) [s] | atrial rate during atrial flutter (atrial flutter; i.v. bolus 3 mg/kg (two dogs) or 10 mg/kg (third dog), initial rates 440-530 cycles/min) | termination of atrial arrhythmia (atrial flutter; i.v. bolus 3 mg/kg, in two of three dogs) | termination of atrial arrhythmia (atrial flutter; i.v. bolus 10 mg/kg, in the third of three dogs)
Cc1cc(C)c(CP(=O)(c2ccccc2)c2ccccc2)c(-c2ccc(F)c(C)c2)c1 [Compound C, 2-(Diphenylphosphinylmethyl)-4'-fluoro-3,5,3'-trimethyl-biphenyl] | 278 | 15.1 | – | 153 ± 8 | no indication of effect on atrioventricular nodal or ventricular function | 10 to 120 | slowed atrial rate | terminated the atrial arrhythmia | terminated the atrial arrhythmia

Source: US5935945A, “Methods of treating or preventing cardiac arrhythmia” (Merck & Co., Inc., priority 1997, dated 1999)
